Data as given in article PMC8800111 (The Journal of Biological Chemistry, 2021).

How the values were obtained:
Assay type in all cases: cell-based
[1] = target: proteins of U3A human fibrosarcoma cells (4462 proteins detected) (Homo sapiens, UniProt Q6SJ93); details: protein FAM111B; U3A cells
[2] = target: proteins of U3A human fibrosarcoma cells (4462 proteins detected) (Homo sapiens, UniProt Q9NSA3); details: protein CTNNBIP1; U3A, 10 μM, 2 h
[3] = target: proteins of U3A human fibrosarcoma cells (4462 proteins detected) (Homo sapiens, UniProt O76061); details: protein STC2; U3A cells
Sequence of proteins of U3A human fibrosarcoma cells (4462 proteins detected) (Homo sapiens, UniProt O76061) (O76061 25-302): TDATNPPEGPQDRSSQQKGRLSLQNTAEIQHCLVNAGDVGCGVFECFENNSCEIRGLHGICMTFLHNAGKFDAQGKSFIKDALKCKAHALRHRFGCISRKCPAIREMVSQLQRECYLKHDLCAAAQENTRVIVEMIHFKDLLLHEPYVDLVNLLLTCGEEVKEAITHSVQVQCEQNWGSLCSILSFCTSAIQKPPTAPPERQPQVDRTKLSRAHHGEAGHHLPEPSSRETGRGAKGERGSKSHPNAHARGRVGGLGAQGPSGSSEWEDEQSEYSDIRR

[4] = target: proteins of U3A human fibrosarcoma cells (4462 proteins detected) (Homo sapiens, UniProt O15498); details: protein YKT6; U3A, 10 μM, 2 h
[5] = target: proteins of U3A human fibrosarcoma cells (4462 proteins detected) (Homo sapiens, UniProt P26447); details: protein S100A4; U3A, 10 μM, 2 h
Sequence of proteins of U3A human fibrosarcoma cells (4462 proteins detected) (Homo sapiens, UniProt P26447) (P26447 whole entry): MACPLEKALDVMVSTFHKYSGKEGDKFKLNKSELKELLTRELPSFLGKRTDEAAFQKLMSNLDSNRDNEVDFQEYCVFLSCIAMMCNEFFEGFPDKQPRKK

[6] = target: proteins of U3A human fibrosarcoma cells (4462 proteins detected) (Homo sapiens, UniProt P52294); details: protein KPNA1; U3A cells
Sequence of proteins of U3A human fibrosarcoma cells (4462 proteins detected) (Homo sapiens, UniProt P52294) (P52294 whole entry): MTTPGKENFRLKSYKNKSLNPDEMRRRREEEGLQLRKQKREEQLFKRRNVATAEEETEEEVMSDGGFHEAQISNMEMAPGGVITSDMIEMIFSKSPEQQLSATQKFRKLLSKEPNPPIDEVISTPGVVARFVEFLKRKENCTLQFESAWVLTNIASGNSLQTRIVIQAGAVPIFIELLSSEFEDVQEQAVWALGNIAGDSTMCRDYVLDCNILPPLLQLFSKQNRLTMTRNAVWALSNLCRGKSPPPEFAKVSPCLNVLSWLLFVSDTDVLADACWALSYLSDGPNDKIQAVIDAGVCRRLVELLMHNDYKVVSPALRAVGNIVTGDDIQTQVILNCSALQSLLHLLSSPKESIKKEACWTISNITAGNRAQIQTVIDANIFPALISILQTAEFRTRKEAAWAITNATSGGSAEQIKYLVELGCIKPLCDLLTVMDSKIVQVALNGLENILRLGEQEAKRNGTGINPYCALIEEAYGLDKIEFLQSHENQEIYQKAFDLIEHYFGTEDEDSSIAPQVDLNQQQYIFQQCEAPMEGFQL

[7] = target: proteins of U3A human fibrosarcoma cells (4462 proteins detected) (Homo sapiens, UniProt Q9Y399); details: protein MRPS2; U3A, 10 μM, 2 h
[8] = target: proteins of U3A human fibrosarcoma cells (4462 proteins detected) (Homo sapiens, UniProt Q13601); details: protein KRR1; soluble abundance after heat, U3A cells
[9] = target: proteins of U3A human fibrosarcoma cells (4462 proteins detected) (Homo sapiens, UniProt O75459); details: protein PAGE1, U3A cells
[10] = target: proteins of U3A human fibrosarcoma cells (4462 proteins detected) (Homo sapiens, UniProt Q6V1X1); details: protein DPP8; U3A cells
Sequence of proteins of U3A human fibrosarcoma cells (4462 proteins detected) (Homo sapiens, UniProt Q6V1X1) (Q6V1X1 whole entry): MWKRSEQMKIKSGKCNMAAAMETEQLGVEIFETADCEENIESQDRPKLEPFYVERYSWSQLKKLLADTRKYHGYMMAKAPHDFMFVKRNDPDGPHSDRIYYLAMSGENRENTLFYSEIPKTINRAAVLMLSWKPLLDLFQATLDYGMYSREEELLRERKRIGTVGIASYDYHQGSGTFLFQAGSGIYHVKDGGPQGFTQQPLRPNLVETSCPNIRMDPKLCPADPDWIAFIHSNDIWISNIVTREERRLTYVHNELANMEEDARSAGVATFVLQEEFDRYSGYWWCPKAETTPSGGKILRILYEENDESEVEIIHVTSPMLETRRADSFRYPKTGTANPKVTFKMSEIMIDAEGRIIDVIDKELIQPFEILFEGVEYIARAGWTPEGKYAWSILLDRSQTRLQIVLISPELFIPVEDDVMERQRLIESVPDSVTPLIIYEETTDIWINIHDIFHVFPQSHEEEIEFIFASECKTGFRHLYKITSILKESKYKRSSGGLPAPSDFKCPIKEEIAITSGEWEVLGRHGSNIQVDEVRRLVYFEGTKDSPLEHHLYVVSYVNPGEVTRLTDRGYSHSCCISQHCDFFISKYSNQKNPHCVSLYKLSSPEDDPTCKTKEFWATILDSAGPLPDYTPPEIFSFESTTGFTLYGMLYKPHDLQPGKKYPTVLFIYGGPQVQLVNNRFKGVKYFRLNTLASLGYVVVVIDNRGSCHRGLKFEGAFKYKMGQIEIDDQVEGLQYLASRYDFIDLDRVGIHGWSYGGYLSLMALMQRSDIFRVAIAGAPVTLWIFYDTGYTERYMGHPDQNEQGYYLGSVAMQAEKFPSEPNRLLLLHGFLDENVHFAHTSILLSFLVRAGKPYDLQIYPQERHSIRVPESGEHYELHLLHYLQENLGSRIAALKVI

[11] = target: proteins of U3A human fibrosarcoma cells (4462 proteins detected) (Homo sapiens, UniProt Q96DM3); details: protein C18orf8; U3A cells
[12] = target: proteins of U3A human fibrosarcoma cells (4462 proteins detected) (Homo sapiens, UniProt O95487); details: protein SEC24B, U3A cells
Sequence of proteins of U3A human fibrosarcoma cells (4462 proteins detected) (Homo sapiens, UniProt O95487) (O95487 whole entry): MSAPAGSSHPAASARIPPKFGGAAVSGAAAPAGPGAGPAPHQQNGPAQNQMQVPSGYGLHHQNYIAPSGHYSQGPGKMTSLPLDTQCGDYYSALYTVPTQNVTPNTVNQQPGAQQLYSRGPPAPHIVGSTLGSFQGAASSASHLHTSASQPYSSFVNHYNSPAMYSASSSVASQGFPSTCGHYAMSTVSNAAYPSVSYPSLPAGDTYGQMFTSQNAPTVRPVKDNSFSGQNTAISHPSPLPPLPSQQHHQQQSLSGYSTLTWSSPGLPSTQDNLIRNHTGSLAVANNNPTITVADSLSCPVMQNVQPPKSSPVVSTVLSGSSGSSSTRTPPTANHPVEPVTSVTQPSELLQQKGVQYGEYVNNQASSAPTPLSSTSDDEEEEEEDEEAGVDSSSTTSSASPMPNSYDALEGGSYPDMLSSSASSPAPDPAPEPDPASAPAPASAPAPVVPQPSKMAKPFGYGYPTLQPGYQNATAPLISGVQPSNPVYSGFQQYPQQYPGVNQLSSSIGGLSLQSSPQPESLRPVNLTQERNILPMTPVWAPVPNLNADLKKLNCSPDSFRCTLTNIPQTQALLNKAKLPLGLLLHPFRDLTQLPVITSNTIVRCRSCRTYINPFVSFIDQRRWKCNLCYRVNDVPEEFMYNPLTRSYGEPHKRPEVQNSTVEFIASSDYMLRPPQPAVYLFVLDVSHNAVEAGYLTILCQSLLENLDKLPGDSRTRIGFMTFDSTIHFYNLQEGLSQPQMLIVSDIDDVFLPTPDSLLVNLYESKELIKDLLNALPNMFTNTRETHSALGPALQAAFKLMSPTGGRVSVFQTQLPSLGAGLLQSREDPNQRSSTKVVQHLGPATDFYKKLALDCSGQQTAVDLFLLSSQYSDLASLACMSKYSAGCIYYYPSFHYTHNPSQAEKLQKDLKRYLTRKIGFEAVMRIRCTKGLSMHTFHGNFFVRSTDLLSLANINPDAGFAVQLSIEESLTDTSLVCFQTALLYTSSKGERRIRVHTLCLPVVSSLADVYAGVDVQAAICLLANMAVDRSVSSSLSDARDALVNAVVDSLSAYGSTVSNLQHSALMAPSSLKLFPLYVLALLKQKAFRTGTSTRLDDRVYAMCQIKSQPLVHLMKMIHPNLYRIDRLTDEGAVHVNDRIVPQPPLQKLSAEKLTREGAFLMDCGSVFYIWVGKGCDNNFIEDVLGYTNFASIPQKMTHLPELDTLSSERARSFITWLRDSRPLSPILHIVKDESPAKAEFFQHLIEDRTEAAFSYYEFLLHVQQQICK

[13] = target: proteins of U3A human fibrosarcoma cells (4462 proteins detected) (Homo sapiens, UniProt Q6P2Q9); details: protein PRPF8; soluble abundance after heat, U3A cells
[14] = target: proteins of U3A human fibrosarcoma cells (4462 proteins detected) (Homo sapiens, UniProt Q8N6T3); details: protein ARFGAP1; U3A, 10 μM, 2 h
[15] = target: proteins of U3A human fibrosarcoma cells (4462 proteins detected) (Homo sapiens, UniProt O60291); details: protein MGRN1; U3A, 10 μM, 2 h
Sequence of proteins of U3A human fibrosarcoma cells (4462 proteins detected) (Homo sapiens, UniProt O60291) (O60291 whole entry): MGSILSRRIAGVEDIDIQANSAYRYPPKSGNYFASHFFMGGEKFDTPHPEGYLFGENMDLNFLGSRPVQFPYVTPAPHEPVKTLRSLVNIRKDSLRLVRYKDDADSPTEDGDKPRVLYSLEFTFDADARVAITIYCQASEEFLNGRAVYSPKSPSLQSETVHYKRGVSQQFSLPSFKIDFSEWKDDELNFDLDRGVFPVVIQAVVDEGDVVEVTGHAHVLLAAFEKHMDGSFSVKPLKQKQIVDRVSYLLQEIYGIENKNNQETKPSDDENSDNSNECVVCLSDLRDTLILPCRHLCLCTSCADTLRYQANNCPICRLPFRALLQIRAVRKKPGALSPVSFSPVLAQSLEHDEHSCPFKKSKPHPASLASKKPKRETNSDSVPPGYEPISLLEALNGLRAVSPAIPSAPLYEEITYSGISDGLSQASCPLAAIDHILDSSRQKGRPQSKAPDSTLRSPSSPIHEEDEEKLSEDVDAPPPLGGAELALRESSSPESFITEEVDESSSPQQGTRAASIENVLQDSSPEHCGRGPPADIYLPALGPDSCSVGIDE

[16] = target: proteins of U3A human fibrosarcoma cells (4462 proteins detected) (Homo sapiens, UniProt Q12931); details: protein TRAP1; U3A cells
[17] = target: proteins of U3A human fibrosarcoma cells (4462 proteins detected) (Homo sapiens, UniProt Q96DH6); details: protein MSI2; U3A, 10 μM, 2 h
Sequence of proteins of U3A human fibrosarcoma cells (4462 proteins detected) (Homo sapiens, UniProt Q96DH6) (Q96DH6 whole entry): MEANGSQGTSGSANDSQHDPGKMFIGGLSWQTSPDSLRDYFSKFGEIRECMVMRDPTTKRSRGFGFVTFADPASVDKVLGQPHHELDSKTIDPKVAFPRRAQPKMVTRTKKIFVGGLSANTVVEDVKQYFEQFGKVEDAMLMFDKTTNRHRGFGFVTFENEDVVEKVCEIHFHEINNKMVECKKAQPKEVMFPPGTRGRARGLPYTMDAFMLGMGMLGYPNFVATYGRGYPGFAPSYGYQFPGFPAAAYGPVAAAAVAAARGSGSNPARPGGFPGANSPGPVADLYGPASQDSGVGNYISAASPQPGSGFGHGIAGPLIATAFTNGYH

[18] = target: proteins of U3A human fibrosarcoma cells (4462 proteins detected) (Homo sapiens, UniProt Q9GZT3); details: protein SLIRP, U3A cells
[19] = target: proteins of U3A human fibrosarcoma cells (4462 proteins detected) (Homo sapiens, UniProt Q9NQZ2); details: protein UTP3; soluble abundance after heat, U3A cells
[20] = target: proteins of U3A human fibrosarcoma cells (4462 proteins detected) (Homo sapiens, UniProt Q96T60); details: protein PNKP; U3A, 10 μM, 2 h
[21] = target: proteins of U3A human fibrosarcoma cells (4462 proteins detected) (Homo sapiens, UniProt P57768); details: protein SNX16; U3A, 10 μM, 2 h
[22] = target: proteins of U3A human fibrosarcoma cells (4462 proteins detected) (Homo sapiens, UniProt Q9NRN7); details: protein AASDHPPT; U3A cells
[23] = target: proteins of U3A human fibrosarcoma cells (4462 proteins detected) (Homo sapiens, UniProt Q9HD33); details: protein MRPL47; U3A cells
[24] = target: proteins of U3A human fibrosarcoma cells (4462 proteins detected) (Homo sapiens, UniProt Q6KC79); details: protein NIPBL; U3A cells
[25] = target: proteins of U3A human fibrosarcoma cells (4462 proteins detected) (Homo sapiens, UniProt Q16576); details: protein RBBP7; soluble abundance after heat, U3A cells
Sequence of proteins of U3A human fibrosarcoma cells (4462 proteins detected) (Homo sapiens, UniProt Q16576) (Q16576 whole entry): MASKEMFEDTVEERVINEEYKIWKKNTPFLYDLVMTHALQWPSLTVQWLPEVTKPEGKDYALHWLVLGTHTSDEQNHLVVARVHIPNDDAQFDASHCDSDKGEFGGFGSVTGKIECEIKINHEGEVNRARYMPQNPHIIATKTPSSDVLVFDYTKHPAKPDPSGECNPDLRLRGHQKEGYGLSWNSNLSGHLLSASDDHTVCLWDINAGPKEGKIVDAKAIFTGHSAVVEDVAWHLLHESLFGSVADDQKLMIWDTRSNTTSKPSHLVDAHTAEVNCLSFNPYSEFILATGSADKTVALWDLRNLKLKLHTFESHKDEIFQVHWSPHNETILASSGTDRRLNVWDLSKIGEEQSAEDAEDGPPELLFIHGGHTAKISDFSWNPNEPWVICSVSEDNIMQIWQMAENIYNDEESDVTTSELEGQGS

[26] = target: proteins of U3A human fibrosarcoma cells (4462 proteins detected) (Homo sapiens, UniProt Q99661); details: protein KIF2C; U3A cells
[27] = target: proteins of U3A human fibrosarcoma cells (4462 proteins detected) (Homo sapiens, UniProt Q86TS9); details: protein MRPL52; soluble abundance after heat, U3A cells
[28] = target: proteins of U3A human fibrosarcoma cells (4462 proteins detected) (Homo sapiens, UniProt P78371); details: protein CCT2; U3A cells
[29] = target: proteins of U3A human fibrosarcoma cells (4462 proteins detected) (Homo sapiens, UniProt Q8WUA7); details: protein TBC1D22A; soluble abundance after heat, U3A cells
Sequence of proteins of U3A human fibrosarcoma cells (4462 proteins detected) (Homo sapiens, UniProt Q8WUA7) (Q8WUA7 whole entry): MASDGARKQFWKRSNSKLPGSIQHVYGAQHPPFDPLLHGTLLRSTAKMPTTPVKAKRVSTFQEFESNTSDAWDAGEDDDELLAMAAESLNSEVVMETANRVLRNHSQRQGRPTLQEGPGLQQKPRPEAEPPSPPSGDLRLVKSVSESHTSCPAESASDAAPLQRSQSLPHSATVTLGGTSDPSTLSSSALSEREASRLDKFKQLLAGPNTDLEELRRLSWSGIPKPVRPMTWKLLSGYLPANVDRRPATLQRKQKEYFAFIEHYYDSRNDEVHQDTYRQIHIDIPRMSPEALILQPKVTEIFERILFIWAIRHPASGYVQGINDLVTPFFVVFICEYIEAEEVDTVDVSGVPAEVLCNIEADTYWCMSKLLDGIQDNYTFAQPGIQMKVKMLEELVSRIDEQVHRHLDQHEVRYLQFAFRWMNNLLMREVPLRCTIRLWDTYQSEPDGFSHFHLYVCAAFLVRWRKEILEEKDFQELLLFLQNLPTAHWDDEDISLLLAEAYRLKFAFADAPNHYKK

Sequence of proteins of U3A human fibrosarcoma cells (4462 proteins detected) (Homo sapiens, UniProt Q9NSA3) (Q9NSA3 whole entry): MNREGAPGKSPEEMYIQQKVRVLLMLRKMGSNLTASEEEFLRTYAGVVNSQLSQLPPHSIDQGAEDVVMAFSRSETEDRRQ

## CCc1nc(N)nc(N)c1-c1ccc(Cl)cc1 [pyrimethamine]
[1]
  Log2 (PYR/DMSO): 0.20
[2]
  Log2 (PYR/DMSO), CTNNBIP1: -0.15
[3]
  Log2 (PYR/DMSO): 0.16
[4]
  Log2 (PYR/DMSO), YKT6: 0.27
[5]
  Log2 (PYR/DMSO), S100A4: -0.16
[6]
  Log2 (PYR/DMSO): 0.17
[7]
  Log2 (PYR/DMSO), MRPS2: 0.25
[8]
  Log2 (PYR/DMSO): 0.14
[9]
  Log2 (PYR/DMSO): -0.04
[10]
  Log2 (PYR/DMSO): 0.16
[11]
  Log2 (PYR/DMSO): 0.17
[12]
  Log2 (PYR/DMSO): -0.04
[13]
  Log2 (PYR/DMSO): 0.14
[14]
  Log2 (PYR/DMSO), ARFGAP1: -0.14
[15]
  Log2 (PYR/DMSO), MGRN1: -0.25
[16]
  Log2 (PYR/DMSO): 0.21
[17]
  Log2 (PYR/DMSO), MSI2: -0.17
[18]
  Log2 (PYR/DMSO): -0.04
[19]
  Log2 (PYR/DMSO): 0.15
[20]
  Log2 (PYR/DMSO), PNKP: -0.22
[21]
  Log2 (PYR/DMSO), SNX16: -0.18
[22]
  Log2 (PYR/DMSO): 0.17
[23]
  Log2 (PYR/DMSO): 0.17
[24]
  Log2 (PYR/DMSO): 0.23
[25]
  Log2 (PYR/DMSO): 0.15
[26]
  Log2 (PYR/DMSO): 0.17
[27]
  Log2 (PYR/DMSO): 0.15
[28]
  Log2 (PYR/DMSO): 0.17
[29]
  Log2 (PYR/DMSO): 0.15
